We go through 28 compounds from patent US20020082420A1, “Bicyclic heterocycles, pharmaceutical compositions containing them, their use, and processes for preparing them” (priority 2000, published 2002).

Counter-ions that a name gives are not always drawn.

On to `O=C(O)CN[C@H]1CC[C@H](Nc2ncc3ncnc(Nc4ccc(F)c(Cl)c4)c3n2)CC1` [Example 1(27), 4-[(3-chloro-4-fluorophenyl)amino]-6-({trans-4-[(carboxymethyl)amino]cyclohex-1-yl}amino)pyrimido [5,4-d]pyrimidine], for which the melting point – broadly, the temperature, or range, at which the solid turns liquid – is 201 to 205 °C (dec.). To `CC(C)OC(=O)CN1CCC(Nc2ncc3ncnc(Nc4ccc(F)c(Cl)c4)c3n2)CC1` [Example 2(3), 4-[(3-chloro-4-fluorophenyl)amino]-6-({1-[(isopropyloxycarbonyl)methyl]piperidin-4-yl}amino)pyrimido[5,4-d]pyrimidine] belongs 175 to 177 °C; to `COC(=O)CCCN(C)[C@H]1CC[C@H](Nc2ncc3ncnc(Nc4ccc(F)c(Cl)c4)c3n2)CC1` [Example 2(9), 4-[(3-chloro-4-fluorophenyl)amino]-6-[(trans-4-{N-[3-(methoxycarbonyl)propyl]-N-methylamino}cyclohex-1-yl)amino]pyrimido[5,4-d]pyrimidine], 99 to 102 °C; to `COC(=O)C1CCCN1CC1CCN(c2ncc3ncnc(Nc4ccc(F)c(Cl)c4)c3n2)CC1` (stereo not shown) [Example 2(21), 4-[(3-chloro-4-fluorophenyl)amino]-6-(4-{[2-(methoxycarbonyl)pyrrolidin 1-yl]methyl}piperidin-1-yl)pyrimido[5,4-d]pyrimidine], 151 to 154 °C. Regarding `O=C(O)CN1CCN(CCNc2ncc3ncnc(Nc4ccc(F)c(Cl)c4)c3n2)CC1` [Example 1(13), 4-[(3-chloro-4-fluorophenyl)amino]-6-{2-[4-(carboxymethyl)piperazin-1-yl]ethylamino}pyrimido[5,4-d]pyrimidine], the melting point is 240 to 242 °C (dec.). To `CCCOC(=O)CN1CCC(Nc2ncc3ncnc(Nc4ccc(F)c(Cl)c4)c3n2)CC1` [Example 2(2), 4-[(3-chloro-4-fluorophenyl)amino]-6-({1-[(propyloxycarbonyl)methyl]piperidin-4-yl}amino)pyrimido[5,4-d]pyrimidine] belongs 135 to 137 °C. Consider `CCOC(=O)CC(CC(=O)OCC)N1CCC(Nc2ncc3ncnc(Nc4cccc(Br)c4)c3n2)CC1` [Example 6(5), 4-[(3-bromophenyl)amino]-6-[(1-{1-[(ethoxycarbonyl)methyl]-2-(ethoxycarbonyl)ethyl}piperidin-4-yl)amino]pyrimido-[5,4-d]pyrimidine], for which the melting point came out at 132 °C.

`O=C(O)CCN(CCC(=O)O)CC1CCN(c2ncc3ncnc(Nc4ccc(F)c(Cl)c4)c3n2)CC1` [Example 1(19), 4-[(3-chloro-4-fluorophenyl)amino]-6-(4-{[N,N-bis(2-carboxyethyl)amino]methyl}piperidin-1-yl)pyrimido[5,4-d]pyrimidine] gave a melting point of 160 to 169 °C. The same measure for `O=C(O)CCN1CCN(c2ncc3ncnc(Nc4ccc(F)c(Cl)c4)c3n2)CC1` [Example 1(7), 4-[(3-chloro-4-fluorophenyl)amino]-6-[4-(2-carboxyethyl)piperazin-1-yl]pyrimido[5,4-d]pyrimidine]: 111 to 145 °C.

Turning to `CCOC(=O)CN1CCC(Nc2ncc3ncnc(Nc4ccc(F)c(Cl)c4)c3n2)CC1` [Example 2, 4-[(3-chloro-4-fluorophenyl)amino]-6-({1-[(ethoxycarbonyl)methyl]piperidin-4-yl}amino)pyrimido[5,4-d]pyrimidine], the melting point is 136 to 138 °C. The same measure for `COC(=O)CCCN1CCC(Nc2ncc3ncnc(Nc4ccc(F)c(Cl)c4)c3n2)CC1` [Example 2(6), 4-[(3-chloro-4-fluorophenyl)amino]-6-({1-[3-(methoxycarbonyl)propyl]piperidin-4-yl}amino)pyrimido[5,4-d]pyrimidine]: 135 to 137 °C; for `COC(=O)CCC1CCN(C2CCN(c3ncc4ncnc(Nc5ccc(F)c(Cl)c5)c4n3)C2)CC1` (stereo not shown) [Example 2(16), 4-[(3-chloro-4-fluorophenyl)amino]-6-(3-{4-[2-(methoxycarbonyl)ethyl]piperidin-1-yl}-pyrrolidin-1-yl)pyrimido[5,4-d]pyrimidine]: 166 to 168 °C; for `COC(=O)CCN1CCN(c2ncc3ncnc(Nc4ccc(F)c(Cl)c4)c3n2)CC1` [Example 2(11), 4-[(3-chloro-4-fluorophenyl)amino]-6-[4-[2-(methoxycarbonyl)ethyl]piperazin-1-yl]pyrimido[5,4-d]pyrimidine]: 140 to 142 °C.

For the compound `CC1(NCCC(=O)O)CCN(c2ncc3ncnc(Nc4ccc(F)c(Cl)c4)c3n2)CC1` [Example 1(30), 4-[(3-chloro-4-fluorophenyl)amino]-6-{4-methyl-4-[(2-carboxyethyl)amino]piperidin-1-yl}pyrimido[5,4-d]pyrimidine], the melting point is 157 to 160 °C. `CN(CCCC(=O)O)[C@H]1CC[C@H](Nc2ncc3ncnc(Nc4ccc(F)c(Cl)c4)c3n2)CC1` [Example 1(5), 4-[(3-chloro-4-fluorophenyl)amino]-6-({trans-4-[N-(3-carboxypropyl)-N-methylamino]cyclohex-1-yl}amino)pyrimido[5,4-d]pyrimidine] gave a melting point of 217 to 221 °C. To `CC1(NCC(=O)O)CCN(c2ncc3ncnc(Nc4ccc(F)c(Cl)c4)c3n2)CC1` [Example 1(32), 4-[(3-chloro-4-fluorophenyl)amino]-6-{4-methyl-4-[(carboxymethyl)amino]piperidin-1-yl}pyrimido[5,4-d]pyrimidine] belongs 160 °C (dec.); to `O=C(O)CCCN1CCC(Nc2ncc3ncnc(Nc4ccc(F)c(Cl)c4)c3n2)CC1` [Example 1(2), 4-[(3-chloro-4-fluorophenyl)amino]-6-{[1-(3-carboxypropyl)piperidin-4-yl]amino}pyrimido[5,4-d]pyrimidine], 145 to 165 °C.

`COC(=O)CC(C(=O)OC)N1CCC(Nc2ncc3ncnc(Nc4cccc(Br)c4)c3n2)CC1` (stereo not shown) (as salt: maleate) [Example 6(4), 4-[(3-bromophenyl)amino]-6-({1-[1,2-bis(methoxycarbonyl)ethyl]piperidin-4-yl}amino)pyrimido[5,4-d]pyrimidine] yielded a melting point of 193 °C. To `O=C(O)CCN1CCC(Nc2ncc3ncnc(Nc4ccc(F)c(Cl)c4)c3n2)CC1` [Example 1(1), 4-[(3-chloro-4-fluorophenyl)amino]-6-{[1-(2-carboxyethyl)piperidin-4-yl]amino}pyrimido[5,4-d]pyrimidine] belongs 217 to 225 °C; to `COC(=O)CCN1CCC(Nc2ncc3ncnc(Nc4ccc(F)c(Cl)c4)c3n2)CC1` [Example 2(5), 4-[(3-chloro-4-fluorophenyl)amino]-6-({1-[2-(methoxycarbonyl)ethyl]piperidin-4-yl}amino)pyrimido[5,4-d]pyrimidine], 136 to 137 °C; to `NC1(C(=O)O)CCN(c2ncc3ncnc(Nc4ccc(F)c(Cl)c4)c3n2)CC1` [Example 1(14), 4-[(3-chloro-4-fluorophenyl)amino]-6-(4-amino-4-carboxypiperidin-1-yl)pyrimido[5,4-d]pyrimidine], 277 to 282 °C.

On to `O=C(O)CN(CC(=O)O)[C@H]1CC[C@H](Nc2ncc3ncnc(Nc4ccc(F)c(Cl)c4)c3n2)CC1` [Example 1(18), 4-[(3-chloro-4-fluorophenyl)amino]-6-({trans-4-[N,N-bis(carboxymethyl)amino]cyclohex-1-yl}amino)pyrimido[5,4-d]pyrimidine], for which the melting point was 245 °C (dec.). To `COC(=O)CCNC1(C)CCN(c2ncc3ncnc(Nc4ccc(F)c(Cl)c4)c3n2)CC1` [Example 6(3), 4-[(3-chloro-4-fluorophenyl)amino]-6-{4-methyl-4-[2-(methoxycarbonyl)ethyl]aminopiperidin-1-yl}pyrimido[5,4-d]pyrimidine] belongs 134 to 135 °C.

Compound `O=C(O)CCNCC1CCN(c2ncc3ncnc(Nc4ccc(F)c(Cl)c4)c3n2)CC1` [Example 1(16), 4-[(3-chloro-4-fluorophenyl)amino]-6-(4-{[(2-carboxyethyl)amino]methyl}piperidin1-yl)pyrimido[5,4-d]pyrimidine] had a melting point of 209 to 214 °C. To `O=C(O)CNCC1CCN(c2ncc3ncnc(Nc4ccc(F)c(Cl)c4)c3n2)CC1` [Example 1(17), 4-[(3-chloro-4-fluorophenyl)amino]-6-(4-{[(carboxymethyl)amino]methyl}piperidin-1-yl)pyrimido[5,4-d]pyrimidine] belongs 226 to 235 °C; to `COC(=O)CCN(C)[C@H]1CC[C@H](Nc2ncc3ncnc(Nc4ccc(F)c(Cl)c4)c3n2)CC1` [Example 2(8), 4-[(3-chloro-4-fluorophenyl)amino]-6-[(trans-4-{N-[2-(methoxycarbonyl)ethyl]-N-methylamino}cyclohex-1-yl)amino]pyrimido[5,4-d]pyrimidine], 126 to 128 °C. Compound `O=C(CN1CCC(Nc2ncc3ncnc(Nc4ccc(F)c(Cl)c4)c3n2)CC1)OC1CCCCC1` [Example 2(4), 4-[(3-chloro-4-fluorophenyl)amino]-6-({1-[(cyclohexyloxycarbonyl)methyl]piperidin-4-yl}amino)pyrimido[5,4-d]pyrimidine] registered a melting point of 184 to 186 °C. Consider `CCOC(=O)CN1CCN(CC2CCN(c3ncc4ncnc(Nc5ccc(F)c(Cl)c5)c4n3)CC2)CC1` [Example 2(22), 4-[(3-chloro-4-fluorophenyl)amino]-6-[4-({4-[(ethoxycarbonyl)methyl]piperazin-1-yl}methyl)piperidin-1-yl]pyrimido[5,4-d]pyrimidine], for which the melting point was 145 to 149 °C.
